What all share (format): cell-based, human
The subject of data set [1] is MGH-U4 transfected with PTEN shRNA.
The subject of data set [2] is VMCUB-3 transfected with H-ras (G12V).
Data set [3] deals with J82, T24, and UM-UC-3 bladder cancer cell lines.
Data set [4] relates to MGH-U3.
Data set [5] has as its system VMCUB-3.
The subject of data set [6] is J82.
The subject of data set [7] is UM-UC-3.
Data set [8] has as its system T24.

For `Oc1ccc2ccccc2c1SSc1c(O)ccc2ccccc12` [IPA-3], in data set [1], the “effect on the increase in BCG uptake after PTEN knockdown” value is recorded as “completely abrogated the increase in BCG uptake”. The “effect on increased BCG uptake in a cell line with activated Ras” value in data set [2] was “inhibited increased BCG uptake”. For `C[C@@H](N)[C@H]1CC[C@H](C(=O)Nc2ccncc2)CC1` [Y-27632], in data set [3], the “effect on BCG uptake” value is given as “did not have a significant effect”. As for “PTEN shRNA (CCGGCCACAGCTAGAACTTATCAAACTCGAGTTTGATAAGTTCTAGCTGT)”, the results for the “increase in uptake of BCG compared to non-targeting shRNA control” value in data set [4] and in data set [5] were “approximately 2 fold” and “not seen”, respectively. As for `COc1ccc2c(c1)c(C1=C(c3c[nH]c4ccccc34)C(=O)NC1=O)cn2CCCN(C)C` [Gö-6983], in data set [3], the “effect on BCG uptake” value is “not inhibited”. Same read-out and setting: with `Cc1ccc2c(c1)C(=O)C1(O)CCN(c3ccccc3)C1=N2` (stereo not shown) [blebbistatin] the entry was “not inhibited”. In the case of `O=c1c(-c2ccc(O)cc2)coc2cc(O)cc(O)c12` [genistein], the “effect on BCG uptake” value in data set [6] is “significantly inhibited”; in data set [7], “not”; in data set [8], “not”.

For the origin of these results see US20150185224A1, “[…] CANCER RESPONSIVENESS TO BCG” (MEMORIAL SLOAN-KETTERING CANCER CENTER, priority 2012, published 2015).
